Consider 1 compound from US9670223B2, “Compounds with super-aspirin effects” (SOLVOTRIN THERAPEUTICS LTD., priority 2011, dated 2017).

Data set [1] can be described thus: Plasma pharmacokinetics of aspirin and metabolites after single oral gavage dose. The class given is in vivo, cynomolgus monkey. As to conditions: cynomolgus monkey, plasma, read-out: modeled AUC of Aspirin. The procedure:
The objectives of this study are to determine the comparative clinical efficacy as determined by TxB2 suppression with single oral gavage dose administration of Aspirin, ST0702 and ST0702 Micronised to the cynomolgus monkey. Aspirin pharmacokinetics were compared using Area Under the Curve (AUC) calculations.
The objectives of this study are to determine the comparative pharmacokinetics of ST0702 at 9.6 and 4.8 mg/Kg with single oral gavage dose administration to the cynomolgus monkey and to determine dose-response effects.
Although the half life of the Isosorbide 2 salicylate 5 nicotinate metabolite is very short in-vitro, we investigated the serum taken from Cynomologus Monkeys participating in Study 2B above. The comparative pharmacokinetics of Isosorbide 2 salicylate 5 nicotinate from Monkeys receiving a single oral gavage dose of micronized ST0702 at 9.6 and 4.8 mg/Kg were evaluated. The concentrations of the breakdown products of ISANA were quantified using LCMS methods.
Animals are acclimated to the oral gavage procedure for at least 3 days prior to the commencement of dose formulation administration. Deionized water is administered by oral gavage using a disposable catheter attached to a plastic syringe at a dose volume of 5 mL/kg. Animals are treated at approximately the same time on each dosing day. Dose formulations are administered by oral gavage using a disposable catheter attached to a plastic syringe. Following each daily dose, the gavage tube is rinsed with 6 mL of Ultra Pure water into the animal's stomach. Each animal will be dosed with a clean gavage tube on each dosing occasion. The dosing volume is 10 mL/kg. Each actual volume administered will be based on the most recent practical body weight of each animal. The dose formulations will be stirred continuously during dose administration.
Samples are mixed gently and placed on crushed wet ice until centrifugation, which are carried out as soon as practical. The samples are centrifuged for approximately 10 minutes in a refrigerated centrifuge (approximately 4° C.) at 2700 rpm. The resultant plasma are separated, transferred to uniquely labeled clear polypropylene tubes, and frozen immediately over dry ice and transferred to a freezer set to maintain −80° C. The plasma samples are transferred to the bioanalytical laboratory at the Testing Facility.
Plasma samples are analyzed for concentration of Aspirin, Salicylic Acid and Nicotinic Acid using a qualified analytical procedure. Analysis are performed by LC MS/MS under Analytical Procedure. Data collection is performed using Analyst from AB Sciex. […]

In another data set the test system is MMP-2. Description: MMP-2 release during 59M-induced TCIPA by zymography. Type of data set: cell-based, human. As to conditions: 300 uM, P>0.05. The procedure: Sample collection was carried out as previously described (Jurasz et al., 2001; Medina et al., 2006). Briefly, platelets at a concentration of 2.5×10^8/ml were placed into lumi-aggregometer and tumor cells (59M) were added at 1×10^3/ml. When platelet aggregation reached 50% maximal light transmission the reaction was terminated and samples were collected. The samples were then centrifuged at 900×g at room temperature for 10 min. After centrifugation, platelet releasates were collected and stored at −80 C until assayed for the presence of MMP activity by zymography.
Gelatin zymography was used to detect the activity of MMP-2 in the releasates as previously described (Alonso-Escolano et al., 2004; Jurasz et al., 2001; Medina et al., 2006). Briefly, samples were subjected to 10% sodium dodecyl sulfate-polyacrylamide gel electrophoresis (SDS-PAGE) with copolymerized gelatin (0.2%; Sigma Chemical Co, St. Louis, Mo.) incorporated as a substrate for gelatinolytic proteases. […] The gelatinolytic activities were detected as transparent bands against the background of Coomassie blue-stained gelatin. The intensities of the separate bands were analyzed and quantified using ChemiDoc XRS System (Bio-Rad, Hercules, Calif., U.S.A.). The gelatinolytic activity of each band was expressed as arbitrary units of density/mg protein.

The next data set concerns washed platelet samples. Description: Arachidonic acid-induced platelet aggregation. Type of data set: cell-based, human. The note with it: n=4.

Like-named read-outs stand apart in the source and are kept apart here.

As for `CC(=O)Oc1ccccc1C(=O)O` [Aspirin], the AUC (usually concentration integrated over time) in data set [1] (oral, Phase 2B text, Aspirin 4.2 mg/Kg dose) came to 923 ng·h/mL; in data set [1] (Phase 2A, Aspirin 4.2 mg/Kg oral) it was 870 ng·h/mL. Also, the “release of pro-MMP-2 during platelet aggregation induced by 59M cells” value with MMP-2 is “failed to prevent”. Also, in the data set on washed platelet samples, the “effect on arachidonic acid (100 μM)-induced aggregation” value is “abolished”.
